Assay results reported in patent US9073858B2, “Methods of targeted drug development” (priority 2010, dated 2015).
“Also recorded” adds a separate entry of the source. Read-outs that look alike come from different tables or passages of the source.

Columns and labels:
[1] = Stability on incubation with mouse liver microsomes (MLM); assay type: in vitro ADME; settings: for stability toward liver microsome incubation: mouse and human liver microsomes (MLM, HLM); for MLM % Remaining@ 30 Min: percentage left after incubation with mouse liver microsomes for 30 minutes
How it was run: (§1)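 Values are percent compound remaining after 30 min incubation with mouse or human liver microsomes.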

[2] = tested on: A549 cells; assay: A549 Cell Proliferation Assay (MTT); assay type: cell-based
Method: Cell proliferation is determined using the MTT assay. The MTT cell proliferation assay is a colorimetric assay system which measures the reduction of a tetrazolium component (MTT) into an insoluble formazan product by the mitochondria of viable cells. After incubation of the cells with the MTT reagent, DMSO is added to solubilize the colored crystals and the samples read at a wavelength of 560 nm. The amount of color produced is directly proportional to the number of viable cells. […] L11939) was prepared at 5 mg/ml in PBS. […] Plates were read on the PolarStar plate reader at 560 nm. […] IC50 values were calculated in GraphPad Prism using non-linear regression curve fitting. All statistical analyses was done either in GraphPad Prism or Microsoft Excel. […] Briefly, compounds are added to cells plated in 96-well plates. The cells are allowed to grow for 72 hours before MTT treatment. The effect of the compounds on cell proliferation is analyzed using GraphPad Prism. A549 cells are a non-small cell lung cancer cell line that have wild type EGFR and p53 but have point mutations in KRAS gene which transform it into an oncogene. […] SH30071.03, lot no. ATB31500), 1% Pen Strep (Gibco, cat no. […] On day 2, working solutions of compounds at 200× were prepared. […] Plates were incubated for 72 hours before analyzing them with MTT (as described above).

[3] = Stability on incubation with human liver microsomes (HLM); assay type: in vitro ADME; settings: percentage left after incubation with human liver microsomes for 30 minutes
How it was run: as §1

[4] = tested on: H1975 cells; assay: H1975 Cell Proliferation Assay (MTT); assay type: cell-based; settings: read-out: IC50 Value (μM) H1975 Cells
Method: (§2) Cell proliferation is determined using the MTT assay. The MTT cell proliferation assay is a colorimetric assay system which measures the reduction of a tetrazolium component (MTT) into an insoluble formazan product by the mitochondria of viable cells. After incubation of the cells with the MTT reagent, DMSO is added to solubilize the colored crystals and the samples read at a wavelength of 560 nm. The amount of color produced is directly proportional to the number of viable cells.
(§3) 3-(4,5-Dimethylthiazol-2-yl)-2,5-diphenyltetrazolium Bromide (MTT) dye (Aesar, cat no. L11939) was prepared at 5 mg/ml in PBS. To each well, 20 μl of MTT solution was added to existing media and mixed thoroughly with 5 mins of gentle shaking at room temperature. Plates were incubated at 37° C., 5% CO2 for approximately 2 hrs. After 2-3 hrs incubation, media was aspirated out and plates were patted dry. […] Plates were incubated at 37° C., 5% CO2 for 10 min and mix thoroughly with 5 mins of gentle shaking at room temperature. Plates were read on the PolarStar plate reader at 560 nm. Percent (%) inhibition was calculated as 100%−(OD560 nm experimental-blank)×100%/OD560 nm control-blank. Blank=wells+serum free media+0.5% DMSO. Experimental=wells+cells+treatment+0.5% DMSO. Control=wells+cells+0.5% DMSO. IC50 values were calculated in GraphPad Prism using non-linear regression curve fitting. All statistical analyses was done either in GraphPad Prism or Microsoft Excel.
Briefly, compounds are added to cells plated in 96-well plates. The cells are allowed to grow for 72 hours before MTT treatment. The effect of the compounds on cell proliferation is analyzed using GraphPad Prism.

[5] = tested on: HT-29 cells; assay: HT-29 Cell Proliferation Assay (MTT); assay type: cell-based; settings: read-out: IC50 Value (μM) HT-29 Cells
Method: as §2, §3
Briefly, compounds are added to cells plated in 96-well plates. […] The effect of the compounds on cell proliferation is analyzed using GraphPad Prism.
HT-29 cells are a colon cancer cell line that is utilized to assess the ability of compounds to inhibit the proliferation of cells in tumors of the colon.
For the HT-29 cell proliferation assay, on day 1, HT-29 cells are seeded at 3,000 cells/well in 100 μl media containing 10% FBS, 1× Pen-Strep, and 1× L-Glutamine in 96 well, tissue culture-treated plates. […] Working solutions of compounds were prepared (at […] in 100% DMSO). To 200 μl media, 20 μl of a 5× compound (diluted in plain media) was added for a final DMSO concentration of 0.5%. […] On day 5, plates were analyzed for cell growth using the MTT assay.

[6] = tested on: DNA fragmentation in A549 cells; assay: DNA Fragmentation Assay (Cell Death Detection ELISA); assay type: cell-based; settings: for activation at 1 µM / activation at 10 µM / Emax at 1 µM / Emax at 10 µM: Homo sapiens; for activation at 1 µM / activation at 10 µM: A549, 24 h, read-out: % Increase over Background; for Emax at 1 µM / Emax at 10 µM: A549, read-out: % Increase Relative to Staurosporin; for induction of apoptosis in A549 cells (DNA fragmentation assay): 10 μM, FIG. 15
[7] = Homo sapiens, A549, 72 h, read-out: IC50 Value (μM) A549 Cells
[8] = Homo sapiens, A549, read-out: IC50, cell proliferation in A549 or H1975 cells

Row | Structure (SMILES) | MLM % Remaining@ 30 Min [1] [%] | IC50 [2, 7] [µM] | HLM % Remaining@ 30 Min [3] [%] | IC50 ([4]; Homo sapiens, NCI-H1975, 72 h) [µM] | IC50 ([5]; Homo sapiens, HT-29, 72 h) [µM] | other results
1 | Cc1cc(Cl)cnc1NC(c1ccc(C(F)(F)F)cc1)c1ccc2cccnc2c1O (stereo not drawn) [AD4-13041] | 81 | 0.11 | 100 | 0.17 | 1.1 | stability toward liver microsome incubation [1]: increased stability
2 | Cc1cc(Cl)cnc1NC(c1ccc(C(F)(F)F)cc1F)c1ccc2cccnc2c1O (stereo not drawn) [AD4-13042] | 99 | 0.11 | 101 | 0.13 | 1.3 | stability toward liver microsome incubation [1]: increased stability
3 | Oc1c(C(Nc2ccc(Cl)cn2)c2cccc(Cl)c2Cl)ccc2cccnc12 (stereo not drawn) [AD4-13086] | 37 | 0.16 | 72 | 0.15 | 1.2 | –
4 | Oc1c(C(Nc2ccc(Cl)cn2)c2cc(Cl)ccc2Cl)ccc2cccnc12 (stereo not drawn) [AD4-13095] | 60 | 0.11 | 88 | 0.44 | 5.4 | –
5 | Cc1cc(NC(c2ccc(Cl)c(C(F)(F)F)c2)c2ccc3cccnc3c2O)ncc1Cl (stereo not drawn) [AD4-13108] | 25 | 0.14 | 93 | 0.3 | 3.3 | –
6 | Oc1c(C(Nc2ccc(F)cn2)c2cc(Cl)cc(Cl)c2Cl)ccc2cccnc12 (stereo not drawn) [AD4-13111] | 87 | 0.14 | 92 | 0.37 | – | IC50 [5]: 8.9 µM
7 | Cc1cc(Cl)cnc1NC(c1cc(Cl)cc(Cl)c1)c1ccc2cccnc2c1O (stereo not drawn) [AD4-13131] | 83 | 0.1 | 100 | 0.1 | 0.92 | IC50 [2, 8]: ≤ 0.1 µM
8 | Oc1c(C(Nc2ccc(F)cn2)c2cc(Cl)cc(Cl)c2Cl)ccc2cccnc12 (stereo not drawn) [AD4-13132] | 66 | – | 98 | – | – | IC50 ([2]; read-out: IC50 Value (μM) A549 Cells): 0.17 µM; IC50 [4]: 0.31 µM; IC50 [5]: 1.6 µM
9 | Cc1cc(Cl)cnc1NC(c1cc(Cl)ccc1Cl)c1ccc2cccnc2c1O (stereo not drawn) [AD4-13137] | – | 0.16 | – | 0.12 | 0.78 | activation at 1 µM [6]: 182%; activation at 10 µM [6]: 628%; Emax at 1 µM [6]: 18%; Emax at 10 µM [6]: 55%
10 | Oc1c(C(Nc2ncc(Cl)cc2F)c2ccc(Cl)cc2Cl)ccc2cccnc12 (stereo not drawn) [AD4-13143] | 76 | 0.13 | 96 | 0.13 | 1.1 | –
11 | Oc1c(C(Nc2ncc(Cl)cc2F)c2ccc(Cl)c(Cl)c2)ccc2cccnc12 (stereo not drawn) [AD4-13150] | 85 | 0.14 | 100 | 0.45 | 1.9 | –
12 | Cc1cc(NC(c2cccc(Cl)c2Cl)c2ccc3cccnc3c2O)ncc1Cl (stereo not drawn) [AD4-13153] | 62 | 0.19 | 96 | 0.19 | 0.79 | –
13 | Oc1c(C(Nc2ccc(C(F)(F)F)cn2)c2cccc(C(F)(F)F)c2)ccc2cccnc12 (stereo not drawn) [AD4-13164] | – | – | – | – | – | activation at 1 µM [6]: 525%; activation at 10 µM [6]: 788%; Emax at 1 µM [6]: 39%; Emax at 10 µM [6]: 58%
14 | Oc1c(C(Nc2cc(Cl)c(Cl)cn2)c2cccc(Cl)c2Cl)ccc2cccnc12 (stereo not drawn) [AD4-13172] | 80 | 0.14 | 100 | 0.15 | 1.3 | –
15 | Oc1c(C(Nc2ncc(F)cc2F)c2cc(Cl)cc(Cl)c2)ccc2cccnc12 (stereo not drawn) [AD4-13176] | – | – | – | – | – | induction of apoptosis in A549 cells (DNA fragmentation assay) [6]: induce apoptosis
16 | Oc1c(C(Nc2cc(Cl)c(Cl)cn2)c2ccc(Cl)c(Cl)c2)ccc2cccnc12 (stereo not drawn) [AD4-13177] | 86 | 0.14 | 86 | 0.27 | 1.5 | –
17 | Oc1c(C(Nc2cc(Cl)c(Cl)cn2)c2cc(Cl)ccc2Cl)ccc2cccnc12 (stereo not drawn) [AD4-13179] | – | 0.14 | – | 0.14 | 4.1 | induction of apoptosis in A549 cells (DNA fragmentation assay) [6]: induce apoptosis
18 | Cc1nc(NC(c2ccc(Cl)cc2Cl)c2ccc3cccnc3c2O)c(Cl)cc1Cl (stereo not drawn) [AD4-13206] | 93 | 0.074 | 99 | 0.36 | 2.1 | stability toward liver microsome incubation [1]: increased stability; also recorded: good stability; IC50 [2, 8]: ≤ 0.1 µM
19 | Cc1nc(NC(c2cccc(Cl)c2Cl)c2ccc3cccnc3c2O)c(Cl)cc1Cl (stereo not drawn) [AD4-13211] | – | 0.082 | – | 0.16 | 2 | IC50 [2, 8]: ≤ 0.1 µM
20 | Cc1cc(Cl)cnc1NC(c1ccc(Cl)cc1Cl)c1cc(Cl)c2cccnc2c1O (stereo not drawn) [AD4-13212] | – | 0.13 | – | – | 3.5 | IC50 ([4]; Homo sapiens, NCI-H1975, MTT, 72 hours): 0.16 µM
21 | CCc1cc(Cl)cnc1NC(c1ccc(Cl)cc1)c1ccc2cccnc2c1O (stereo not drawn) [AD4-13225] | – | – | – | – | – | activation at 1 µM [6]: 702%; activation at 10 µM [6]: 697%; Emax at 1 µM [6]: 52%; Emax at 10 µM [6]: 52%
